Test [1] has as its system Nucleic Acid. Description: Binding affinity to poly(dA).poly(dT) duplex DNA assessed as ratio of KA to KB by ESI-MS analysis. Type of test: nucleic-acid assay.
The test system of test [2] is Nucleic Acid. Description: Binding affinity to poly(A).poly(U) RNA assessed as change in melting temperature. Type of test: nucleic-acid assay.
Test [3] concerns Nucleic Acid. Nature of the test: Binding affinity to poly(dA).poly(dT) DNA assessed as change in melting temperature. Type of test: nucleic-acid assay.
The target of test [4] is Kappa-type opioid receptor (Rattus norvegicus, UniProt P34975). Nature of the test: Binding affinity to kappa opioid receptor in rat brain membrane. Type of test: cell membranes.
For test [5], the target named is Delta-type opioid receptor (Rattus norvegicus, UniProt P33533). Description: Binding affinity to delta opioid receptor in rat brain membrane. In kind it is cell membranes.
Chain of Delta-type opioid receptor (P33533 whole entry): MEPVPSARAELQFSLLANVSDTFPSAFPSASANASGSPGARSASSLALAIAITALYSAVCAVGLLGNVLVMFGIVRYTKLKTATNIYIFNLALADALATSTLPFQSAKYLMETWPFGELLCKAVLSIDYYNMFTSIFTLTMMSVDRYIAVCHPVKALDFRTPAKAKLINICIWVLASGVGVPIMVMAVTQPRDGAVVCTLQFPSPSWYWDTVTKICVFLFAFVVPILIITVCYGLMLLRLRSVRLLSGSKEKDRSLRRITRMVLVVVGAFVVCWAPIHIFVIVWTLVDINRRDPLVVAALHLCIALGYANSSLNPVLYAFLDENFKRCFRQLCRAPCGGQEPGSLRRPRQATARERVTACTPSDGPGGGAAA

Chain of Kappa-type opioid receptor (P34975 whole entry): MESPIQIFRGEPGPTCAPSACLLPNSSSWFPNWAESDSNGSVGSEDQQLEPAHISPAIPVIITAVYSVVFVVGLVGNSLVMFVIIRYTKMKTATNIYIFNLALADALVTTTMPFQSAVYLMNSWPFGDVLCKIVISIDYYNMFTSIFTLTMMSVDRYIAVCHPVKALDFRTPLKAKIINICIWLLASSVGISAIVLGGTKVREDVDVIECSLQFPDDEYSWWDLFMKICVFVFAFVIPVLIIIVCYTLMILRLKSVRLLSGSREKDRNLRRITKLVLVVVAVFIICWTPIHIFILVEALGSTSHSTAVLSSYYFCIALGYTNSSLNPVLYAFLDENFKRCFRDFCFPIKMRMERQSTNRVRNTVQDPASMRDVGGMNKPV

For `CN1CCN(c2ccc3[nH]c(-c4ccc5[nH]c(-c6ccc(O)cc6)nc5c4)nc3c2)CC1`, the Ratio with Nucleic Acid [1] worked out at 2.4.

As to `N=C(N)c1ccc(/N=N/Nc2ccc(C(=N)N)cc2)cc1`, in the test with Nucleic Acid [1], the Ratio is 0.32. Turning to `CC[n+]1c(-c2ccccc2)c2cc(N)ccc2c2ccc(N)cc21`, the ΔTm in the test on Nucleic Acid [2] worked out at 17 °C. With `COc1cc2cc3c4cc(OC)c(OC)cc4cc[n+]3c(C)c2cc1OC`, the ΔTm in the test with Nucleic Acid [3] was found to be 18 °C. As to `Cn1cc(NC(=O)c2cc(NC(=O)CNC(=N)N)cn2C)cc1C(=O)NCCC(=N)N`, in the test with Nucleic Acid [1], the Ratio was 0.28. Turning to `Cn1cc(NC(=O)c2cc(NC(=O)c3cc(NC=O)cn3C)cn2C)cc1C(=O)NCCC(=N)N`, the Ratio in the test on Nucleic Acid [1] was determined as 4.4. For `CCOc1ccc(-c2nc3cc(-c4nc5cc(N6CCN(C)CC6)ccc5[nH]4)ccc3[nH]2)cc1`, the Ratio with Nucleic Acid [1] worked out at 3.7. As to `O=C1c2c(O)ccc(O)c2C(=O)c2c(NCCNCCO)ccc(NCCNCCO)c21`, in the test on Nucleic Acid [3], the ΔTm was 23 °C. On the same count and under the same terms, the figure for `COc1cccc2c1C(=O)c1c(O)c3c(c(O)c1C2=O)C[C@@](O)(C(=O)CO)C[C@@H]3O[C@H]1C[C@H](N)[C@H](O)[C@H](C)O1` is 13 °C. With `CN1CC[C@]23c4c5ccc(O)c4O[C@H]2c2[nH]c4ccccc4c2C[C@@]3(O)[C@H]1C5` [OXYMORPHINDOLE], the figures for the Ki in test [4] and in test [5] were 2170 nM and 0.8 nM, respectively. The compound `Oc1ccc2c3c1O[C@H]1c4[nH]c5ccccc5c4C[C@@]4(O)[C@@H](C2)N(CC2CC2)CC[C@]314` [NALTRINDOLE] came in with a Ki in test [4] of 30 nM.

In general, ΔTm refers to the shift of the melting midpoint relative to a reference. Usually Ki stands for a measure of affinity in units of concentration, obtained from inhibition or displacement.
